Reference: US20170081347A1, “FUNCTIONALIZED AZABORINE COMPOUNDS AND AZABORINE-CONTAINING BIARYLCARBOXAMIDES, AND COMPOSITIONS AND METHODS THEREOF” (The Trustees of Boston College, priority 2014, published 2017)
Values after ≈ are worked out from the molar mass of the structure shown. Read-outs that look alike come from different tables or passages of the source.

Tests used:
[1] = Solubility pH = 6.8; assay type: physicochemical; conditions: aqueous buffer
[2] = LogD; assay type: physicochemical
[3] = Solubility FASSIF (fasted state simulated intestinal fluid); assay type: physicochemical
[4] = PAMPA (parellel artificial membrane permeability assay); assay type: in vitro ADME; parameters: unit not given here
[5] = RLM Cl; assay type: in vitro ADME
[6] = target: CYP3A4 (Homo sapiens, UniProt P08684); experiment: CYP3A4 (Cytochrome P450 3A4); assay type: in vitro ADME
Chain of CYP3A4 (P08684 whole entry): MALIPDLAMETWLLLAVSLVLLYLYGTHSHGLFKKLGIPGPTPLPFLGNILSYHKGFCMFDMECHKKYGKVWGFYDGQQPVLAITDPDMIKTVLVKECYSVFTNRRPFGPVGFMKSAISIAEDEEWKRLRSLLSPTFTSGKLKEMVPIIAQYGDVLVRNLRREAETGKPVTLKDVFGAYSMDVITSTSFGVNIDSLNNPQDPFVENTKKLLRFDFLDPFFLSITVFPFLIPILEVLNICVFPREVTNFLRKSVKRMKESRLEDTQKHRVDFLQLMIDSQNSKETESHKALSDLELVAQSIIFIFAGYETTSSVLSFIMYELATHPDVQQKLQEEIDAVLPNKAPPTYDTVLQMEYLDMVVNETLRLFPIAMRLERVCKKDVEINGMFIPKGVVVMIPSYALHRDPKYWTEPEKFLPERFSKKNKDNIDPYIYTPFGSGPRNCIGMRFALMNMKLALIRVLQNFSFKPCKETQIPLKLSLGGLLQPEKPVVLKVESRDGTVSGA

[7] = target: hERG (Homo sapiens, UniProt Q12809); experiment: hERG
Chain of hERG (Q12809 whole entry): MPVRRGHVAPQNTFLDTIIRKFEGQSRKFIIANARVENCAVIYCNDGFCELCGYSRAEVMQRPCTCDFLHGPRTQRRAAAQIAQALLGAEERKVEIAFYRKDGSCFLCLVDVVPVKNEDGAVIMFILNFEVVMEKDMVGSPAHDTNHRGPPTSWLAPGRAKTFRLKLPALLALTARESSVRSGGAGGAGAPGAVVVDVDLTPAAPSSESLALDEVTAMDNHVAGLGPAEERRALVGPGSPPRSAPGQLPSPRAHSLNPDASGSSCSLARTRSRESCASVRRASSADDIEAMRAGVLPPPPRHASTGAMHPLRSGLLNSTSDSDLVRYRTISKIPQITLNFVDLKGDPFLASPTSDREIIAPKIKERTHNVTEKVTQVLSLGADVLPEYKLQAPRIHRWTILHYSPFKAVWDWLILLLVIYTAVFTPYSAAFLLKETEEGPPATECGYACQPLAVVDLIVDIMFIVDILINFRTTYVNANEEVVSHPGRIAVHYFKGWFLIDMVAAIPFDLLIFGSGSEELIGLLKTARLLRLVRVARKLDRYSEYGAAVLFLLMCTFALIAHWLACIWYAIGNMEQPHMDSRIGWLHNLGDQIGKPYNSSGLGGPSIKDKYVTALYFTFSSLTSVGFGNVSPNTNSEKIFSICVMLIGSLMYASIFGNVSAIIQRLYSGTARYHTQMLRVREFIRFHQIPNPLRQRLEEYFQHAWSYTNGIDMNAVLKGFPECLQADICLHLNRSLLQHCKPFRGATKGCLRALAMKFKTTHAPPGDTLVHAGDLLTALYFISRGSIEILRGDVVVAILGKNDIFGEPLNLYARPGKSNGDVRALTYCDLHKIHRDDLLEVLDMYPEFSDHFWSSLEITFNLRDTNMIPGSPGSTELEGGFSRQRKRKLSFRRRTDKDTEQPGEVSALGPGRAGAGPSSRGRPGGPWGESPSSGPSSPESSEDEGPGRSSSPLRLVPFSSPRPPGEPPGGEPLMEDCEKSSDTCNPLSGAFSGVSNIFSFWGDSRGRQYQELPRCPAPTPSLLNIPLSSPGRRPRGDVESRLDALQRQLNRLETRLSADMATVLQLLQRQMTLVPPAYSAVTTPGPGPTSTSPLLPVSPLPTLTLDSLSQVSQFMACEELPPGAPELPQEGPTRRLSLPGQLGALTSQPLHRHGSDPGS

[8] = target: CDK2 (Homo sapiens, UniProt P24941); experiment: CDK2 inhibitor; assay type: biochemical
[9] = target: T1, PPARδ (Homo sapiens, UniProt Q03181); experiment: PPARδ antagonist; assay type: biochemical
T1 sequence (Q03181 1-441): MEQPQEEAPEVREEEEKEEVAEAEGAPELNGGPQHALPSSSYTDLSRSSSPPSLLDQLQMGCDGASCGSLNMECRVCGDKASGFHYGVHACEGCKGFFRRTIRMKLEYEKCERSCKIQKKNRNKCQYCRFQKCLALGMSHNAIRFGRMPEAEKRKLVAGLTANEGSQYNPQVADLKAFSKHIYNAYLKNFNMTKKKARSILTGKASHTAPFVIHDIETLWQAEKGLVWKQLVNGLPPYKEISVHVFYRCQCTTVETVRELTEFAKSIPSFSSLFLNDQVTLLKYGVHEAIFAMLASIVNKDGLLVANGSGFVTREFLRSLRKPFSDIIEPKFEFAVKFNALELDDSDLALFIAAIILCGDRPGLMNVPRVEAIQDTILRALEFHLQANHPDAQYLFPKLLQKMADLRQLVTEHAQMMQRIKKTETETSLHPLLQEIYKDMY

[10] = target: T2, PPARγ (Homo sapiens, UniProt P37231); experiment: PPARγ antagonist; assay type: biochemical
T2 sequence (P37231 1-505): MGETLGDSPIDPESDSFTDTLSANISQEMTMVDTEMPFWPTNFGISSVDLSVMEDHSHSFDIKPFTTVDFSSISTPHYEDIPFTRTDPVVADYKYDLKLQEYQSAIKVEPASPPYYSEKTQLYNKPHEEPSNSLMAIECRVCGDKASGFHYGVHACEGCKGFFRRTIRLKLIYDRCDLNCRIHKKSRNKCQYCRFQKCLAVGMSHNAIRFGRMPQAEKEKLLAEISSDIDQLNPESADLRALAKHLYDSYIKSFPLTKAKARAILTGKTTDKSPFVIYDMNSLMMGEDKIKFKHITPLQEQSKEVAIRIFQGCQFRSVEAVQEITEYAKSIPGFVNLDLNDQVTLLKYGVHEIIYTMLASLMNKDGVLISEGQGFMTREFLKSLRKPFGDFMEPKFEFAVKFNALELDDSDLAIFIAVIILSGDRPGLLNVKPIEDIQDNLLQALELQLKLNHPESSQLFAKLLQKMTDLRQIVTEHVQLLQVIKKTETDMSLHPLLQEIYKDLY

[11] = target: T3, PPARα (Homo sapiens, UniProt Q07869); experiment: PPARα inverse agonist; assay type: biochemical
T3 sequence (Q07869 1-468): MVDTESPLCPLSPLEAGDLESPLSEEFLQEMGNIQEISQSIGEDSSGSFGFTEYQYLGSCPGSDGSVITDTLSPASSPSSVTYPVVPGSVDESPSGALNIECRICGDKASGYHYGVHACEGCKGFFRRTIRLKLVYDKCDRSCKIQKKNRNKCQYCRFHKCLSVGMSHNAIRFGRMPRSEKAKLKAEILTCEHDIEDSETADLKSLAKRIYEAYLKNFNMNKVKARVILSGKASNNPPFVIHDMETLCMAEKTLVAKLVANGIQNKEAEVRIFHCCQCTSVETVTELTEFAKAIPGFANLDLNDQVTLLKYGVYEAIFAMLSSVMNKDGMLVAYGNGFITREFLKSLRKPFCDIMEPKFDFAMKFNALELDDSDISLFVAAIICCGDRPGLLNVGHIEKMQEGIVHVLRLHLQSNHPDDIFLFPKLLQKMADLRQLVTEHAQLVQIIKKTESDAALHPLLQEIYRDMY

[12] = target: Opioid δ (Homo sapiens, UniProt P41143); experiment: Opioid δ antagonist; assay type: biochemical
Chain of Opioid δ (P41143 whole entry): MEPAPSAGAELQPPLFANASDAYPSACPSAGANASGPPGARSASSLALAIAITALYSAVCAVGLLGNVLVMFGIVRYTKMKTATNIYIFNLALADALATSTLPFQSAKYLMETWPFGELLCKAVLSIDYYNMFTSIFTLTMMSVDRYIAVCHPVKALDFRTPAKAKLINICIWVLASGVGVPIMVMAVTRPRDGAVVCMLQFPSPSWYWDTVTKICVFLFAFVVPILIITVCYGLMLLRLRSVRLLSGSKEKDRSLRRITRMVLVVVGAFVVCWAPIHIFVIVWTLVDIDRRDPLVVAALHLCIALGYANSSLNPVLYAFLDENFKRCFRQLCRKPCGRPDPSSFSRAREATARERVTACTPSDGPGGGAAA
Description: (§1) Bioactivity and ADME testing were performed for certain compounds of the invention.

[13] = target: Opioid μ (Homo sapiens, UniProt P35372); experiment: Opioid μ antagonist; assay type: biochemical
Chain of Opioid μ (P35372 whole entry): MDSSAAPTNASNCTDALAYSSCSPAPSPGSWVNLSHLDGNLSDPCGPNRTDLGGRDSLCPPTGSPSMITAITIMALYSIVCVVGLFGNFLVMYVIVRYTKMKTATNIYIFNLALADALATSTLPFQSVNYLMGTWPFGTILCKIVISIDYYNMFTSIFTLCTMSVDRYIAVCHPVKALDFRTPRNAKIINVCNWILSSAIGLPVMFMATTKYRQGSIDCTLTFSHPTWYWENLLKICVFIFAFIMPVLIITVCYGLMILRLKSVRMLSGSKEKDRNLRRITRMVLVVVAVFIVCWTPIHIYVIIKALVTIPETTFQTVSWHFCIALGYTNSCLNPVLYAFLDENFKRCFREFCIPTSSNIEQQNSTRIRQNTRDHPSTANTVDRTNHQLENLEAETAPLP
Description: as §1

[14] = target: Dopamine D3 (Homo sapiens, UniProt P35462); experiment: Dopamine D3 antagonist; assay type: biochemical
Chain of Dopamine D3 (P35462 whole entry): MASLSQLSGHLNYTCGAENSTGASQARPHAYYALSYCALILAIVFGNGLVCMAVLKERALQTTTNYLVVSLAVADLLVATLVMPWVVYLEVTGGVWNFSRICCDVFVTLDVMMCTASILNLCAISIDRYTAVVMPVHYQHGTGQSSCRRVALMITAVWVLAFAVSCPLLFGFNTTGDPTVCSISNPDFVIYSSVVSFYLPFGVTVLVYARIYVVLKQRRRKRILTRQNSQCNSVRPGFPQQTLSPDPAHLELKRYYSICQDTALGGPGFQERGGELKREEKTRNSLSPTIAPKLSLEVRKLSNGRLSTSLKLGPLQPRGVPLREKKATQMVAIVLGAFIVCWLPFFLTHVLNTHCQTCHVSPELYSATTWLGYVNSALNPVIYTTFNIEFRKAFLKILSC
Description: as §1

[15] = target: Dopamine D2 (Homo sapiens, UniProt P14416); experiment: Dopamine D2 antagonist; assay type: biochemical
Chain of Dopamine D2 (P14416 whole entry): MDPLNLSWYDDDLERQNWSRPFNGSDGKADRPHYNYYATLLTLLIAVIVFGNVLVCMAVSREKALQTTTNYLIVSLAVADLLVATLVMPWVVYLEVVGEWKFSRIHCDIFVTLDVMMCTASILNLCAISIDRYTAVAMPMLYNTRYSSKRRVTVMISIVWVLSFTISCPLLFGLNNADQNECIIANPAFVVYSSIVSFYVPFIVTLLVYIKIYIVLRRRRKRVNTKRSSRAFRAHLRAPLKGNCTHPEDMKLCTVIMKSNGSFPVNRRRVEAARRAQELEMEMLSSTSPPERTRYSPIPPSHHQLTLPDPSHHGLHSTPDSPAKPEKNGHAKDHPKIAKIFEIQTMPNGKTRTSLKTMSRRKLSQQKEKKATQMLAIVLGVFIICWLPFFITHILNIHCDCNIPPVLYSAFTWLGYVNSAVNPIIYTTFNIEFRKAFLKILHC

Compound	solubility [1]	logD [2]	solubility [3]	PAMPA [4]	RLM Cl [5]	IC50 [6]	IC50 [8]	IC50 [9]	IC50 [10]	IC50 ([9]; antagonist, read-out: PPARδ antagonist IC50)	IC50 [11]	IC50 [12]	IC50 [13]	IC50 [14]	IC50 [15]	IC50 [7]
CC(C)[C@@H](CN1CCN(c2cccc(O)c2)[C@@H](C)C1)NC(=O)c1ccc(-c2ccccc2)cc1	50 µM (≈ 22.9 µg/mL)	5.2	349 µM (≈ 160 µg/mL)	−5.7	>53 mL/min/kg	> 20 µM						> 30 µM	7.4 µM			> 30 µM
COc1ccccc1N1CCN(CCCCNC(=O)c2ccc(-c3ccccc3)cc2)CC1	< 5 µM	4.2	21 µM (≈ 9.32 µg/mL)	−3.9	51.4 mL/min/kg	> 20 µM								3 nM		0.042 µM
O=C(O)Cc1ccc(B2C=CC=CN2)cc1	> 1000 µM		790 µM (≈ 168 µg/mL)			> 20 µM										> 30 µM
O=C(NC1CCN(Cc2ccccc2)C1)c1ccc(-c2ccccc2)cc1 (stereo not shown)	13 µM (≈ 4.63 µg/mL)	4.4	27 µM (≈ 9.62 µg/mL)	−3.6	43.7 mL/min/kg	> 20 µM										0.32 µM
O=C(NC1CCN(Cc2ccccc2)C1)c1ccc(B2C=CC=CN2)cc1 (stereo not shown)	> 30 µM	4.1	597 µM (≈ 213 µg/mL)	−4.8	48.5 mL/min/kg	> 20 µM										1.4 µM
CN(CCc1c[nH]c2ccccc12)C(=O)c1ccc(-c2ccccc2)cc1	< 5 µM	> 5	< 5 µM	−4.5	48.6 mL/min/kg	> 20 µM										> 30 µM
O=C(O)Cc1ccc(-c2ccccc2)cc1	890 µM (≈ 189 µg/mL)		840 µM (≈ 178 µg/mL)													
COc1ccc2[nH]cc(CCNC(=O)c3ccc(-c4ccccc4)cc3)c2c1		> 5		−4.1	46.4 mL/min/kg	> 20 µM										11 µM

More lines, main results first:

solubility [1]	logD [2]	solubility [3]	PAMPA [4]	RLM Cl [5]	IC50 [6]	IC50 [8]	IC50 [9]	IC50 [10]	IC50 ([9]; antagonist, read-out: PPARδ antagonist IC50)	IC50 [11]	IC50 [12]	IC50 [13]	IC50 [14]	IC50 [15]	Compound	IC50 [7]
< 4 µM	4.2	13 µM	−3.9	50 mL/min/kg	> 20 µM										Cl.O=C(Cc1ccc(-c2ccccc2)cc1)Nc1cc(C2CC2)n[nH]1	> 30 µM
					7.8 µM	240 nM									O=C(Cc1ccc(B2C=CC=CN2)cc1)Nc1cc(C2CC2)[nH]n1	> 30 µM
< 4 µM	3.5	< 4 µM	−4.2	38.7 mL/min/kg	> 20 µM		3900 nM	1.4 µM							O=C(NCCS(=O)(=O)c1ccc(C(F)(F)F)cn1)c1ccc(-c2ccccc2)cc1	> 20 µM
< 4 µM	3.5	6 µM (≈ 2.62 µg/mL)	−4.5	>53 mL/min/kg	> 20 µM			4.8 µM	1400 nM	52 nM					O=C(NCCS(=O)(=O)c1ccc(C(F)(F)F)cn1)c1ccc(B2C=CCCN2)cc1	> 30 µM
< 5 µM	4.6	13 µM (≈ 4.62 µg/mL)	−4.2	52.4 mL/min/kg	> 20 µM										CN(CCc1c[nH]c2ccccc12)C(=O)c1ccc(B2C=CC=CN2)cc1	5.8 µM
88 µM (≈ 25.4 µg/mL)	3.2	130 µM (≈ 37.6 µg/mL)	−4.6	39.6 mL/min/kg	8.6 µM										O=C(NCc1ccncc1)c1ccc(B2C=CC=CN2)cc1	> 30 µM
	5		−4.2	51.3 mL/min/kg	17 µM										COc1ccc2[nH]cc(CCNC(=O)c3ccc(B4C=CC=CN4)cc3)c2c1	7.9 µM
26 µM (≈ 12 µg/mL)	4.9	119 µM (≈ 54.8 µg/mL)	−5.0	>53 mL/min/kg	16 µM						> 14 µM	1 µM			CC(C)[C@@H](CN1CCN(c2cccc(O)c2)[C@@H](C)C1)NC(=O)c1ccc(B2C=CCCN2)cc1	9.1 µM
46 µM (≈ 20.4 µg/mL)	4.1	220 µM (≈ 97.8 µg/mL)	−4.3	>53 mL/min/kg	11 µM								4 nM	520 nM	COc1ccccc1N1CCN(CCCCNC(=O)c2ccc(B3C=CC=CN3)cc2)CC1	0.17 µM
